Assay results: ChEMBL document CHEMBL1201862, “PubChem BioAssay data set” (2004)
Activity calls are given as the source filed them.

Columns and labels:
[1] = molecular target: Diphosphomevalonate decarboxylase (Streptococcus pneumoniae serotype 2 (strain D39 / NCTC 7466), UniProt Q9FD53); test: S. pneumoniae DPM-DC inhibition retest, confirmation, biochemical, cuvette format, coupled NADH fluorescence (AID 1028); type: functional
[2] = P. falciparum Dd2 growth inhibitors, dose response, SYBR Green, cherry-picked samples (AID 1159567); type: functional, cell-based
[3] = P. falciparum Dd2 growth inhibitors, dose response, SYBR Green, dry powder samples (AID 1159566); type: functional, cell-based;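 also: potency for growth inhibition with lower SYBR green DNA signal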
[4] = P. falciparum 3D7-ScDHODH growth inhibitors, dose response, SYBR Green, dry powder samples (AID 1159570); type: functional, cell-based;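 also: parasite growth measured after 72 hours of compound exposure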
[5] = HepG2 cell cytotoxicity, dose response, cytotoxicity control, plate reader, dry powder samples (AID 1159569); type: functional, cell-based;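 also: inhibitor potency with signal falling toward the positive control level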
[6] = P. falciparum ATP4 D1247Y mutant growth inhibitors, dose response, NITD609-resistant line, SYBR Green, dry powder (AID 1159571); type: functional, cell-based;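 also: parasites synchronized at ring stage by sorbitol before testing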
[7] = HepG2 cell cytotoxicity, dose response, cytotoxicity control, cherry-picked samples (AID 1159577); type: functional, cell-based
[8] = Luminescent dose response cell-based high throughput screening assay for inhibitors of the Janus kinase 2 mutant JAK2V617F. [Related pubchem assays: 1446 (Primary screen.), 1521 (Confirmation assay.), 1486 (Counter screen.)]; type: functional
Vero = test: cells; type: functional; conditions: Chlorocebus sabaeus
Paired box protein Pax-8 = Paired box protein Pax-8 (Homo sapiens, UniProt Q06710); test: inhibitors of PAX8-driven TPO luciferase reporter, dose response, RMG-I cells, cherry-pick (AID 687027); type: functional, cell-based;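 also: luciferase reporter driven by Pax8 target thyroperoxidase promoter measured by SteadyGlo luminescence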
Chain of Paired box protein Pax-8 (Q06710 whole entry): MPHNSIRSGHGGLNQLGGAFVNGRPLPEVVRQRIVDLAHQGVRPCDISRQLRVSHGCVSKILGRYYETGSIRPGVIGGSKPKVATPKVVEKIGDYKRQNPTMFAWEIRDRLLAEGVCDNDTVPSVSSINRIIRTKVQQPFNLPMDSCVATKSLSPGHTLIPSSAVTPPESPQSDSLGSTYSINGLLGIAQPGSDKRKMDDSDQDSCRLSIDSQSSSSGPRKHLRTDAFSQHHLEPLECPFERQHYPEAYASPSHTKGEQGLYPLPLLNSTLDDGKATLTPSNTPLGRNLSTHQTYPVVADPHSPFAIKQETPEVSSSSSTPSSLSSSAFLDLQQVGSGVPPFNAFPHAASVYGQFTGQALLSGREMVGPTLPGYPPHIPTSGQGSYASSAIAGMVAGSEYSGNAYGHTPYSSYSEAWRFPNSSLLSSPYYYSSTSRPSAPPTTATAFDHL

Transthyretin = Transthyretin (Homo sapiens, UniProt P02766); test: Luminescence-based cell-based high throughput dose response assay to identify activators of Transthyretin (TTR) transcription.; type: functional
[9] = P. falciparum Dd2 growth inhibitors, dose response, SYBR Green, dry powder samples, set 4 (AID 1159572); type: functional, cell-based
[10] = THP-1 cell cytotoxicity, dose response, cytotoxicity control for Vif-APOBEC3G degradation inhibitor project, THP-1 cells (AID 1117359); type: functional; conditions: Human immunodeficiency virus 1, THP-1
[11] = RKO cell viability reduction, dose response, CellTiter-Glo luminescence (AID 1117322); type: functional
[12] = cytotoxicity toward HT-29 cells – cell-based, CellTiter-Glo luminescence, IC50, dose response (AID 1117330); type: functional
[13] = SNU-C1 cell viability reduction, dose response, CellTiter-Glo luminescence (AID 1117323); type: functional, cell-based
[14] = HeLa 2N DNA content increase, dose response, cell-based, IC50 (AID 1117349); type: functional
[15] = cytotoxicity toward HCT116 cells – cell-based, CellTiter-Glo luminescence, IC50, dose response (AID 1117332); type: functional; conditions: HCT-116
[16] = cytotoxicity toward Colo320 cells – cell-based, CellTiter-Glo luminescence, IC50, dose response (AID 1117334); type: functional; conditions: COLO 320
[17] = Concentration-dependent survival of SW480 colon cancer line, luminescence detection with CellTiter-Glo, half-maximal inhibitory concentration (AID 1117338); type: functional
[18] = HeLa 4N DNA content increase, dose response, cell-based, IC50 (AID 1117351); type: functional
[19] = CellTiter-Glo luminescent dose response of DLD-1 viability loss (AID 1117352); type: functional
[20] = inhibitors of intracellular T. cruzi replication, confirmation, NIH3T3 host cells, beta-gal luminescence (AID 2044); type: functional, cell-based;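 also: intracellular parasites grown in NIH/3T3 mouse fibroblasts as host cells; luminescent beta-galactosidase reporter signal from transgenic T. cruzi replicating inside host cells; inhibitors lower the luminescence signal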
[21] = cytotoxicity toward NIH3T3 fibroblasts, dose response, counter-screen, cell-based, ATP luminescence, mouse fibroblasts (AID 2010); type: functional;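 also: cells exposed to compound for about 90 hours before reading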
Bcl-2-related protein A1 [22] = molecular target: T1, Bcl-2-related protein A1 (Mus musculus, UniProt Q07440); test: Bfl-1 inhibitors, primary screen, biochemical, fluorescence polarization, FITC-Bid, mouse (AID 432)
T1 sequence (Q07440 whole entry): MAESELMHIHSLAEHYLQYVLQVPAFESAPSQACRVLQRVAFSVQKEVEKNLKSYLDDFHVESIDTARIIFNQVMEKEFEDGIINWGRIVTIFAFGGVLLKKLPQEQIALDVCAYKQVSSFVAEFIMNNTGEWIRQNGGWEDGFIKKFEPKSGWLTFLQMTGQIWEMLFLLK

[23] = inhibitors of SNCA 5'UTR-driven reporter translation, confirmation, H4 neuroglioma cells, luminescence (AID 1988); type: functional, cell-based
[24] = inhibitors of firefly luciferase expression or activity, dose response, H4 neuroglioma cells, luminescence (AID 1990); type: functional, cell-based
INS1 = test: beta cell apoptosis inhibitors, cytokine rescue, dose response, luminescence, retest (AID 449756); type: functional, cell-based; conditions: Rattus norvegicus;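 also: cell death triggered by IL-1 beta plus TNF-alpha plus IFN-gamma mixture; protective hits raise ATP signal compared with cytokine alone wells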
Bcl-2-related protein A1 [25] = molecular target: T1, Bcl-2-related protein A1; test: Bfl-1 inhibitors blocking BH3 peptide binding, confirmation, biochemical, TR-FRET, mouse Bfl-1 (AID 621);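 also: TR-FRET binding of GST-Bfl-1 to FITC-labelled Bid peptide via terbium antibody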
Nonstructural protein 1 = Nonstructural protein 1 (Influenza A virus, UniProt Q194T2); type: functional, Influenza A virus (A/California/07/2009(H1N1))
Chain of Nonstructural protein 1 (Q194T2 whole entry): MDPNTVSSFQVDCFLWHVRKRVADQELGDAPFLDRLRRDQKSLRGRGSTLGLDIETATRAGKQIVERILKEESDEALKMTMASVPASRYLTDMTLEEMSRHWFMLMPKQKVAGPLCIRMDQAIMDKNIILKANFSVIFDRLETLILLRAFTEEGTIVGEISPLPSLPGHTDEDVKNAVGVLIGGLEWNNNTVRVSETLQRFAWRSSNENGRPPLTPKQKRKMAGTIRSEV

[26] = Luminescence Cell-Based Dose Response HTS to Identify Inhibitors of 5'UTR Stem-Loop Driven Prion Protein mRNA Translation in H4 Neuroglioblastoma Cells. [Related pubchem assays: 1827 (Project Summary), 1813 (Primary HTS)]; type: functional
[27] = molecular target: Peroxisome proliferator-activated receptor gamma/Nuclear receptor corepressor 2 (Homo sapiens, UniProt P37231+Q9Y618); test: Counterscreen for NR2E3 inverse agonists: TR-FRET-based biochemical high throughput dose response assay to identify inverse agonists of the interaction between peroxisome proliferator-activated receptor gamma (PPARg) and nuclear receptor co-repressor 2 (NCOR2).; type: functional
Chain of Peroxisome proliferator-activated receptor gamma/Nuclear receptor corepressor 2 (P37231 whole entry): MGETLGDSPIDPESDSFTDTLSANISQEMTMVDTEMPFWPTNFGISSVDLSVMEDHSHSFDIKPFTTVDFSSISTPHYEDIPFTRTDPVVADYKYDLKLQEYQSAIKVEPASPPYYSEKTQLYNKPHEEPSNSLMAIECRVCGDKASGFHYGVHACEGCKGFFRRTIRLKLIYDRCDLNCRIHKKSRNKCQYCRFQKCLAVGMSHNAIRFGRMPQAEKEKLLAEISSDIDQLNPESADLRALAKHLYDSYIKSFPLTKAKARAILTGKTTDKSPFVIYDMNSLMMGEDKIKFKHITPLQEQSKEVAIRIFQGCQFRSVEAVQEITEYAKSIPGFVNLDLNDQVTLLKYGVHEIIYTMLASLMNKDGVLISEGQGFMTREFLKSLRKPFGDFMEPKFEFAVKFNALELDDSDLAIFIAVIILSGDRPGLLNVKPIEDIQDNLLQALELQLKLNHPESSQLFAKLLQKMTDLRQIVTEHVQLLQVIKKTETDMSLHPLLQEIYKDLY
Chain of Peroxisome proliferator-activated receptor gamma/Nuclear receptor corepressor 2 (Q9Y618 whole entry): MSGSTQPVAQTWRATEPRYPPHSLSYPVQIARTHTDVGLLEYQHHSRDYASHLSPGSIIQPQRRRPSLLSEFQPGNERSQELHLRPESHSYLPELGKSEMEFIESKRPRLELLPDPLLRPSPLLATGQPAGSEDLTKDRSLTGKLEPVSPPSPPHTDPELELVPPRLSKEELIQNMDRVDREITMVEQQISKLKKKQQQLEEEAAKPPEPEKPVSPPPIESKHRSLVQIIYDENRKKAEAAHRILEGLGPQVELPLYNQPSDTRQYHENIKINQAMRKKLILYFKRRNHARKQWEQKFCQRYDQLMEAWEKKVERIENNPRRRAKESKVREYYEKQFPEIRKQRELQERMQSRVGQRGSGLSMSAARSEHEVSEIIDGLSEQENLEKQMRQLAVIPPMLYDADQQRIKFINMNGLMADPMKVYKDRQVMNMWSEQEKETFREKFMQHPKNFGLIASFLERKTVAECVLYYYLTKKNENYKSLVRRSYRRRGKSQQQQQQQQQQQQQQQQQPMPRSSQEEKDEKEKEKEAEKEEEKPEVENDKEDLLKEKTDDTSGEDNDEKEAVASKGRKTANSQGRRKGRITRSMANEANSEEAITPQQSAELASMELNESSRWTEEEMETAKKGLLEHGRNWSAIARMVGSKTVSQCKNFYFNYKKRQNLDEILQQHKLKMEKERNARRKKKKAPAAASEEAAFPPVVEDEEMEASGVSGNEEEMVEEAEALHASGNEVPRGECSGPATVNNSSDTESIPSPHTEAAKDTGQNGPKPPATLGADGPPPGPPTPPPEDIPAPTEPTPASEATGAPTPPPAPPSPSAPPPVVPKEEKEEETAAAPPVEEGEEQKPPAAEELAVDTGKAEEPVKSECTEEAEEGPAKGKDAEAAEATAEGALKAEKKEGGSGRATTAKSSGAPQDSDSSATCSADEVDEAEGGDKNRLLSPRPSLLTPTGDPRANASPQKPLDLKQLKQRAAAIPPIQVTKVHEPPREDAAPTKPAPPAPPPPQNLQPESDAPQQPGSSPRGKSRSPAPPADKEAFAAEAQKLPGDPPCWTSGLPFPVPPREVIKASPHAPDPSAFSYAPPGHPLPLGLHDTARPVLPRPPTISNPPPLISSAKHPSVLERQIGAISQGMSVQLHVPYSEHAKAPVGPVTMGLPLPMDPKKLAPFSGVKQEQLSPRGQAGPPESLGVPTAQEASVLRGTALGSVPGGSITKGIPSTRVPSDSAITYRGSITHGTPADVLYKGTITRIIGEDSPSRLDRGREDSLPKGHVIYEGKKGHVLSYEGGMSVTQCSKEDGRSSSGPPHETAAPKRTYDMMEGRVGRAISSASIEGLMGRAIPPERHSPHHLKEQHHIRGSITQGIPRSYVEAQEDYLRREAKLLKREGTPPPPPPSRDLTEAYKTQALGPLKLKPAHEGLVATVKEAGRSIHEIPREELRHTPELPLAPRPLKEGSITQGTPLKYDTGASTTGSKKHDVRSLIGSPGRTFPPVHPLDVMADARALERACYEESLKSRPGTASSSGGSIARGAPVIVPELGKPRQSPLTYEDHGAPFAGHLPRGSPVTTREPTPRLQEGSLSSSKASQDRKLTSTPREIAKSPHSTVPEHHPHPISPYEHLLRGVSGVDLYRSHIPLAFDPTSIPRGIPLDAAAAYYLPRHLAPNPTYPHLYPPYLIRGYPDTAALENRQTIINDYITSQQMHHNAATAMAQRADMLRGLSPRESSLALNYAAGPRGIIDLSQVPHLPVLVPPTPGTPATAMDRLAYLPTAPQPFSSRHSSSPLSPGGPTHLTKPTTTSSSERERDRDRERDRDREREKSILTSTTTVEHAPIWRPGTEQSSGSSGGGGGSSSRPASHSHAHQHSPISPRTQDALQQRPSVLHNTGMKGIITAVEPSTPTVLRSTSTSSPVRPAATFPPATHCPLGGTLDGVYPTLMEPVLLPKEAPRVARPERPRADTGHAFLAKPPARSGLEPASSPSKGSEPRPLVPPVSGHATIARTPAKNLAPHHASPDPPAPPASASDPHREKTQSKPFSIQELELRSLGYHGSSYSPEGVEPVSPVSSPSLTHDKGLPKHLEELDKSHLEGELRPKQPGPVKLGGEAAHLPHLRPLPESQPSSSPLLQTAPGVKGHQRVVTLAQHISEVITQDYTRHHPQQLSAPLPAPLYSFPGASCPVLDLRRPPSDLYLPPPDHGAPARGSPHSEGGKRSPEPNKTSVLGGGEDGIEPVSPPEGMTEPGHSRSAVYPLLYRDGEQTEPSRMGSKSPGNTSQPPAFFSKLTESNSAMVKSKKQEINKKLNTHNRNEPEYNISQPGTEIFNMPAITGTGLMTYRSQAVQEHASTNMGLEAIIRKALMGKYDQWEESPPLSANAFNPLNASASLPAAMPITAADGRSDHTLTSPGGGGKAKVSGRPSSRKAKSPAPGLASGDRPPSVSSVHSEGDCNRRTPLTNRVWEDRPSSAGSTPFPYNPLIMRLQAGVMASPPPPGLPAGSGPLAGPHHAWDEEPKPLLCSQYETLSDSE

[28] = molecular target: Photoreceptor-specific nuclear receptor (Homo sapiens, UniProt Q9Y5X4); test: NR2E3 inverse agonists, dose response, biochemical, TR-FRET (AID 463256); type: functional
Chain of Photoreceptor-specific nuclear receptor (Q9Y5X4 whole entry): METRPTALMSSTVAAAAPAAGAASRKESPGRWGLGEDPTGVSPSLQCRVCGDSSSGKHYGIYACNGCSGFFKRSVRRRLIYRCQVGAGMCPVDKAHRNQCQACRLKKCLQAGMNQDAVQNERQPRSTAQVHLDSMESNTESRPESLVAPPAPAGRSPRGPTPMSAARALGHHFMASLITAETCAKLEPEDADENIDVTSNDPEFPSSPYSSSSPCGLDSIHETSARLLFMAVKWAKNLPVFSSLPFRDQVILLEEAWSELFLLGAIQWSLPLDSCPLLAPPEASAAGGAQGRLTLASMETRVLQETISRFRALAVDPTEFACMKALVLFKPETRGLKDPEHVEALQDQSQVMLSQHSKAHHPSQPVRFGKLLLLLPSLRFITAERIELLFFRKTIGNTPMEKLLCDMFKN

[29] = PAX5 activity inhibitors, dose response, selectivity assay for PAX8 inhibitor project, cell-based, plate reader, dry powder samples (AID 743047); type: functional;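 also: HEK293 cells carrying a Pax5 driven CD19 promoter luciferase reporter; potency of inhibitors that lower reporter luminescence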
[30] = cytotoxicity dependent on PAX8, dose response, cell-based, plate reader, dry powder (AID 743049); type: functional
[31] = PAX2 cell-based inhibition, dose response, selectivity assay for PAX8 inhibitor project, plate reader, dry powder samples (AID 743048); type: functional;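 also: HEK293 cells carrying a WT1 promoter luciferase reporter driven by expressed Pax2; potency is for inhibition of Pax2 driven reporter signal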
[32] = cytotoxicity in COV362 ovarian cancer cells, dose response, cytotoxicity control for PAX8 inhibitor project, cell-based, plate reader, dry powder, SA12 (AID 743144); type: functional
[33] = cytotoxicity in OV-90 ovarian cancer cells, dose response, PAX8 inhibitor project, cell-based, plate reader, dry powder, SA8 (AID 743149); type: functional
[34] = HepG2 cell cytotoxicity, dose response, cytotoxicity control, plate reader, dry powder, set 6 (AID 743311); type: functional, cell-based
cells [35] = conditions: HEK293
[36] = A549 cell cytotoxicity, dose response, cytotoxicity control, plate reader, dry powder, set 6 (AID 743312); type: functional, cell-based
[37] = molecular target: T2, Tyrosine-protein phosphatase non-receptor type 7 (Homo sapiens, UniProt P35236); test: inhibitors of human HePTP phosphatase, […], biochemical, absorbance, leukemia target (AID 521); type: functional
T2 sequence (P35236 whole entry): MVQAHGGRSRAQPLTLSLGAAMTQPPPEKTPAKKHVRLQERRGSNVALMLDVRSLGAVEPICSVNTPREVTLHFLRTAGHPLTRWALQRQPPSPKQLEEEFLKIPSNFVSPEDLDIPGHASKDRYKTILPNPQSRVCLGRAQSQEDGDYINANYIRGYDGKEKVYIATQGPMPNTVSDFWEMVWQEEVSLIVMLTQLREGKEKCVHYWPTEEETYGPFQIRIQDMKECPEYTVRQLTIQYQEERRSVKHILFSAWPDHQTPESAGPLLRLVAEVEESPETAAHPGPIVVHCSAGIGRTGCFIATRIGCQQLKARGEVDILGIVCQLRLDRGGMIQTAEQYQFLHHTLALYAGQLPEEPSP

cells [38] = test: cells
Protein skinhead-1 = molecular target: T3, Protein skinhead-1 (Caenorhabditis elegans, UniProt P34707); type: functional
T3 sequence (P34707 whole entry): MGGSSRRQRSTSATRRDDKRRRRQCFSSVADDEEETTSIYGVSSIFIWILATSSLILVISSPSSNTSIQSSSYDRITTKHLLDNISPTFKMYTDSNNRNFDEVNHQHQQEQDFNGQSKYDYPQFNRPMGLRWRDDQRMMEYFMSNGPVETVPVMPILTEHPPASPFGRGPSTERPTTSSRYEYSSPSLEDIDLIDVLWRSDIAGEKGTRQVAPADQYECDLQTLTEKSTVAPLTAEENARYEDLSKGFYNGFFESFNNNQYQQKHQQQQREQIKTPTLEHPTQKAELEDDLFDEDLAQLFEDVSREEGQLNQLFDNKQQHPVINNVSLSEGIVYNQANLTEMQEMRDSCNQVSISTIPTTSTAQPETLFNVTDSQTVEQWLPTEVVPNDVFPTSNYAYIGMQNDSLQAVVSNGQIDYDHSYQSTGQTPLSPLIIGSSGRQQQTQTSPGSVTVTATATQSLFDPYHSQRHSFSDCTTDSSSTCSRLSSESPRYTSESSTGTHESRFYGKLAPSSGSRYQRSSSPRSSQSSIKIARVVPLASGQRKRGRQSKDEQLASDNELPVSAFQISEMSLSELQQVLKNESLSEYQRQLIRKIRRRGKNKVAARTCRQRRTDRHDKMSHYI

[39] = molecular target: T4, Oxysterols receptor LXR-beta (Homo sapiens, UniProt P55055); type: functional, cell-based;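 also: Cell-based luminescence dose-response assay of agonist activity at LXR, run as a confirmatory counterscreen to a daf-12 agonist screen; HEK293 cells with Gal4-LXR fusion and GAL4-driven luciferase reporter; agonist potency from rising luciferase signal of a Gal4-LXR reporter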
T4 sequence (P55055 whole entry): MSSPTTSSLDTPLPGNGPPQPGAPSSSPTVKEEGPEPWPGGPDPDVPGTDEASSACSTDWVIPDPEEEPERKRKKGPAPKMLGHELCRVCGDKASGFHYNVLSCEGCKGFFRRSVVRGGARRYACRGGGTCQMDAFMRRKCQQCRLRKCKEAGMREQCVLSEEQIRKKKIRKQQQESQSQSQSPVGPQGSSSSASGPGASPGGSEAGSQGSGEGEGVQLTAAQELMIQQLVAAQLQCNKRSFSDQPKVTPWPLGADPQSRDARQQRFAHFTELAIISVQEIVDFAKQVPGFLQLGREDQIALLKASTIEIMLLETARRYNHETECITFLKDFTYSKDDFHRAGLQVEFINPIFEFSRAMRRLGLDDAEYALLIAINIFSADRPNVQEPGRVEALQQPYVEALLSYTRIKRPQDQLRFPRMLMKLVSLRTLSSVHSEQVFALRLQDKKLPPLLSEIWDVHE

cells [40] = test: cells; remark: listed apart in the source

Chain of Diphosphomevalonate decarboxylase (Q9FD53 whole entry): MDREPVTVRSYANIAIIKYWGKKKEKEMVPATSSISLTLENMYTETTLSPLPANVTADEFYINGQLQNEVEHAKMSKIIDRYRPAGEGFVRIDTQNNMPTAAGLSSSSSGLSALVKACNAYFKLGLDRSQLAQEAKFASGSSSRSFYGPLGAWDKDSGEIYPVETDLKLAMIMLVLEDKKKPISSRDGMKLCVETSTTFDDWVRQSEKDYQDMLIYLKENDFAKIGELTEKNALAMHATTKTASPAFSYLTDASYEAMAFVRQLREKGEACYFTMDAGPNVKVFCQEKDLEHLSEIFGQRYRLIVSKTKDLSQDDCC

O=C(NCC1CC1)c1ccc(-n2sc3ccccc3c2=O)cc1
IC50 [1]: 11.9 µM (active)

COc1ccc(C#Cc2ccc3c(c2)[C@@H]2[C@@H](CCN2C(=O)C2CCCC2)[C@@H](CO)N3)cc1
AC50 [2]: 2.82 µM (active)
AC50 [3]: 1.09 µM (active)
AC50 [4]: 1.31 µM (active)
AC50 [5]: > 100 µM (inactive)
AC50 [6]: 1.1 µM (active)

Cc1cccc(S(=O)(=O)N2CCCCN3[C@@H](CO)[C@@H](c4ccc(C#CC5CC5)cc4)[C@@H]3C2)c1
AC50 [2]: 1.3 µM (active)
AC50 [7]: 14.4 µM (active)

Cc1nc2ccccc2c(O)c1C(=O)/C=C/c1ccccc1
IC50 [8]: 1.71 µM (active)
CC50 (Vero): 7.78 µM (active)
AC50 (Paired box protein Pax-8): 6.93 µM (active)

Cn1ncc(Cl)c1C(=O)N1CCc2ccccc21
EC50 (Transthyretin): > 167 µM (inactive)

CCCNC(=O)N1CCC2(CC1)CN(C(C)=O)[C@@H](CO)c1[nH]c3cc(OC)ccc3c12
AC50 [9]: 9.51 µM (active)

CC(C)Oc1ccc(C(=O)N(Cc2ccco2)C2CCS(=O)(=O)C2)cc1 (stereo unspecified)
CC50 [10]: > 40 µM (active)

O=c1c(-c2ccccc2)c1-c1ccccc1 [DIPHENCYPRONE]
IC50 [11]: > 20 µM (inactive)
IC50 [12]: > 20 µM (inactive)
IC50 [13]: > 20 µM (inactive)
IC50 [14]: > 10 µM (inactive)
IC50 [15]: > 20 µM (inactive)
IC50 [16]: 3.1 µM (active)
IC50 [17]: > 20 µM (inactive)
IC50 [18]: > 10 µM (inactive)
IC50 [19]: 4.21 µM (active)

Nc1ccc(N2CCCCC2)cc1N1CCCCC1
EC50 [20]: 0.197 µM (active)
EC50 [21]: > 60 µM (not active)
IC50 (Bcl-2-related protein A1 [22]): > 100 µM (not active)
EC50 [23]: > 120 µM (not active)
EC50 [24]: > 120 µM (not active)
AC50 (INS1): 12.9 µM (active)
IC50 (Bcl-2-related protein A1 [25]): > 100 µM (not active)
IC50 (Nonstructural protein 1): 16.1 µM (active)
EC50 [26]: > 120 µM (not active)

CC(=O)c1sc(NS(=O)(=O)c2ccc(C)cc2)nc1-c1ccccc1
IC50 [27]: > 39.8 µM (not active)
IC50 [28]: > 39.8 µM (not active)

N#C[C@H]1[C@@H](c2ccc(C#CC3CCCCC3)cc2)[C@@H](CO)N1S(=O)(=O)c1ccccc1
AC50 [2]: 4.94 µM (active)
AC50 (Paired box protein Pax-8): 8.09 µM (active)
AC50 [29]: 19.3 µM (active)
AC50 [30]: 18.7 µM (active)
AC50 [31]: 19 µM (active)
AC50 [32]: 61.4 µM (active)
AC50 [33]: 32.3 µM (active)

CC(C)c1ccccc1OCCn1c(=S)[nH]c2ccccc21
AC50 [34]: 32.9 µM (active)
AC50 (cells [35]): 27.6 µM (active)
AC50 [36]: 21.1 µM (active)

COCC(=O)N1CCC(n2nnc3cc(F)ccc32)CC1
IC50 [37]: > 100 µM (not active)

CN1CCc2c(sc3c2c(=O)n(-c2ccccc2)c2nnc(SCc4ccc(Cl)cc4)n32)C1
EC50 [20]: < 0.1 µM (active)
EC50 [21]: > 60 µM (not active)
EC50 (cells [38]): < 0.004 µM (active)

Fc1ccccc1-c1nc(-c2ccc(Br)o2)no1
IC50 (Protein skinhead-1): > 100 µM (inactive)
EC50 [39]: > 67.6 µM (inactive)
EC50 (cells [40]): > 67.6 µM (inactive)
